The test relates to NF-κB activation. The experiment in a line: NF-κB activation reporter assay (pNFκB-Luc luciferase) under TNF-α stimulation. It is filed as cell-based, human. Conditions: Homo sapiens, HepG2 or HeLa cells, TNF-α 40 ng/ml, 4 hours, read-out: The rate of inhibitory activity against NF-κB activation (%); for inhibition at 1 µg/mL: Concentration of the agent: 1 μg/mL; for inhibition at 10 µg/mL: Concentration of the agent: 10 μg/mL. (Reporter assays use an easily measured gene product as a stand-in for the process of interest.)

Experimental findings from patent US8097759B2, “Inflammatory cytokine release inhibitor” (Institute of Medicinal Molecular Design, Inc., priority 2000, dated 2012) are described below.

For `O=C(Nc1cc(Cl)cc(Cl)c1)c1cc(Br)ccc1O` [Compound 148], the inhibition at 1 µg/mL was determined as 77.1% and the inhibition at 10 µg/mL worked out at 92.8%.
In the same order, the values of `O=C(Nc1cc(Cl)cc(Cl)c1)c1cc(I)ccc1O` [Compound 149] are 85.4% and 97.1%.
In the same order, the values of `O=C(Nc1cc(Cl)cc(Cl)c1)c1cc(Br)cc(Br)c1O` [Compound 150] are 91.4% and 95.1%.
The matching figures for `O=C(Nc1cc(Cl)cc(Cl)c1)c1ccc(Cl)cc1O` [Compound 151]: -42.8% and 71.8%.
On to `O=C(Nc1cc(Cl)cc(Cl)c1)c1cc([N+](=O)[O-])ccc1O` [Compound 152], for which the inhibition at 1 µg/mL was -56.8% and the inhibition at 10 µg/mL stood at 70.6%.
The matching figures for `Cc1ccc(O)c(C(=O)Nc2cc(Cl)cc(Cl)c2)c1` [Compound 153]: 49.1% and 88.7%.
In the same order, the values of `COc1ccc(O)c(C(=O)Nc2cc(Cl)cc(Cl)c2)c1` [Compound 154] are -31% and 48.2%.
The matching figures for `O=C(Nc1cc(Cl)c(Cl)c(Cl)c1)c1cc(Br)ccc1O` [Compound 155]: 85.6% and 94.1%.
Consider `O=C(Nc1cc(Cl)c(O)c(Cl)c1)c1cc(Br)ccc1O` [Compound 156], for which the inhibition at 1 µg/mL amounted to 7.3% and the inhibition at 10 µg/mL is 74.9%.
The matching figures for `O=C(Nc1c(F)c(F)c(F)c(F)c1F)c1cc(Cl)ccc1O` [Compound 157]: 86.2% and 98.1%.
In the same order, the values of `O=C(Nc1cc([N+](=O)[O-])cc([N+](=O)[O-])c1)c1cc(Br)ccc1O` [Compound 158] are 91% and 95.6%.
In the same order, the values of `CC(C)(C)c1ccc(C(C)(C)C)c(NC(=O)c2cc(Cl)ccc2O)c1` [Compound 159] are 89.1% and 96.3%.
On to `Cc1cc(C)cc(NC(=O)c2cc(Br)ccc2O)c1` [Compound 161], for which the inhibition at 1 µg/mL turned out to be 86.3% and the inhibition at 10 µg/mL was 92.6%.
The matching figures for `CC(C)(C)c1cc(NC(=O)c2cc(Br)ccc2O)cc(C(C)(C)C)c1` [Compound 163]: 70.9% and 82%.
In the same order, the values of `O=C(Nc1cccc(-c2ccccc2)c1)c1cc(Cl)ccc1O` [Compound 165] are 88.2% and 95.1%.
In the same order, the values of `COc1ccc(-c2ccccc2)cc1NC(=O)c1cc(Cl)ccc1O` [Compound 166] are 82.4% and 97.9%.
Take `COc1ccc(OC)c(NC(=O)c2cc(Br)ccc2O)c1` [Compound 167]: the inhibition at 1 µg/mL amounted to 32.4% and the inhibition at 10 µg/mL came out at 95.7%.
In the case of `COc1cc(NC(=O)c2cc(Br)ccc2O)cc(OC)c1` [Compound 168], the inhibition at 1 µg/mL was determined as 38.3% and the inhibition at 10 µg/mL was 96.8%.
As for `CC(=O)c1cccc(NC(=O)c2cc(Cl)ccc2O)c1` [Compound 169], the inhibition at 1 µg/mL came to 14.5% and the inhibition at 10 µg/mL turned out to be 88.1%.
In the same order, the values of `O=C(Nc1nccs1)c1cc(Br)ccc1O` [Compound 180] are -23.1% and 42.8%.
The matching figures for `O=C(Nc1nc(C(F)(F)F)c(Br)s1)c1cc(Br)ccc1O` [Compound 182]: 85.3% and 94.4%.
The matching figures for `CC(C)(C)c1nc(NC(=O)c2cc(Br)ccc2O)sc1C#N` [Compound 184]: 20% and 93.8%.
As for `Cc1cnc(NC(=O)c2cc(Br)ccc2O)s1` [Compound 185], the inhibition at 1 µg/mL was -1.5% and the inhibition at 10 µg/mL amounted to 69.7%.
In the case of `Cc1nc(NC(=O)c2cc(Br)ccc2O)sc1C` [Compound 187], the inhibition at 1 µg/mL worked out at 4.6% and the inhibition at 10 µg/mL came to 67.2%.
The matching figures for `Cc1sc(NC(=O)c2cc(Br)ccc2O)nc1-c1ccccc1` [Compound 188]: 83.6% and 94.4%.
In the case of `Cc1nc(NC(=O)c2cc(Br)ccc2O)sc1-c1cccc(C(F)(F)F)c1` [Compound 190], the inhibition at 1 µg/mL is -32.4%.
Consider `CCc1nc(NC(=O)c2cc(Br)ccc2O)sc1-c1ccccc1` [Compound 192], for which the inhibition at 1 µg/mL was 28.8% and the inhibition at 10 µg/mL is 87.6%.
The matching figures for `O=C(Nc1nc(-c2ccccc2)cs1)c1cc(Br)ccc1O` [Compound 202]: -41.8% and 78.8%.
The matching figures for `O=C(O)Cc1sc(NC(=O)c2cc(Br)ccc2O)nc1-c1ccccc1` [Compound 203]: 2.4% and 72.1%.
In the same order, the values of `O=C(Nc1nc(-c2ccccc2)c(-c2ccccc2)s1)c1cc(Br)ccc1O` [Compound 204] are -5.3% and 67%.
As to `O=C(Nc1nc(Cc2ccccc2)c(-c2ccccc2)s1)c1cc(Br)ccc1O` [Compound 205], the inhibition at 1 µg/mL was determined as 79.7% and the inhibition at 10 µg/mL stood at 95%.
In the same order, the values of `O=C(Nc1nc(C(F)(F)F)c(-c2ccccc2)s1)c1cc(Br)ccc1O` [Compound 206] are 85.1% and 89.4%.
In the case of `CCOC(=O)c1sc(NC(=O)c2cc(Br)ccc2O)nc1C(F)(F)F` [Compound 216], the inhibition at 1 µg/mL worked out at 87.6% and the inhibition at 10 µg/mL is 96.5%.
The matching figures for `CCOC(=O)c1sc(NC(=O)c2cc(-n3cccc3)ccc2O)nc1-c1ccccc1` [Compound 222]: 74% and 90.1%.
